What all share (assay): NCI tumour cell line growth inhibition, 48 h
The test system of test [1] is HCT-116 colon.
The test system of test [2] is 786-0 renal.
Test [3] concerns SK-MEL-5 melanoma.
The test system of test [4] is OVCAR-4 ovarian.
For test [5], the system named is SNB-78 CNS.
The test system of test [6] is NCI-H23 lung.
The subject of test [7] is UACC-62 melanoma.
Test [8] deals with RPMI-8226 leukemia.
The subject of test [9] is OVCAR-3 ovarian.
Test [10] relates to SF-539 CNS.

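Protocol summary: plate cells (96-well), add compound at 5 concentrations, incubate 48 h, interpolate endpoints linearly. GI50: concentration for 50% inhibition of growth. TGI is the concentration that stops growth completely.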

In the case of `COC(=O)C(CC(=O)Nc1ccc(C)cc1)C(=O)C(=O)Nc1ccccc1C(C)C` (stereo not drawn), the TGI in test [1], in test [2], in test [3], in test [4], in test [5] and in test [6] was more than 100 µM each time. Further, the TGI in test [7], in test [8], in [9] and in test [10] was more than 100 µM each time.
As to `CCOP(=O)(OCC)OC(C#N)c1ccc(-c2ccccc2)cc1` (stereo not drawn), the TGI in test [1] was 28.5 µM; in test [2], 31.6 µM; in test [3], 31.8 µM; in test [4], 36.6 µM; in test [5] it was more than 100 µM; in test [6] it was more than 100 µM. Besides, the TGI in test [7] stood at 29.2 µM; in [8], 45.8 µM; in test [9], 39.1 µM; in test [10] it was 38.9 µM.
Regarding `OC1(c2ccccc2)OC(C#Cc2ccccc2)(c2ccccc2)c2ccccc21` (stereo not drawn), the TGI was 3.07 µM in test [1]; 13.5 µM in [2]; 20.2 µM in [3]; 5.85 µM in test [4]; 23.2 µM in test [5]; 11.3 µM in [6]. Also, the TGI in [7] is 3.84 µM; in test [8] it was 6.62 µM; in [9], 5.93 µM; in [10], 4.07 µM.
As to `COC(=O)[C@]12CCC(C)[C@H](C)[C@H]1C1=CCC3[C@@]4(C)CC[C@H](OC(C)=O)C(C)(C)C4CC[C@@]3(C)C1(C)C(O)C2` (stereo partly drawn), the TGI in test [1], in test [2], in [3], in test [4], in [5] and in test [6] was more than 100 µM throughout. Moreover, the TGI in test [7], in [8], in [9] and in [10] was more than 100 µM in each case.
As for `O=[N+]([O-])c1cnn(C2=CNc3ccccc3N=C2)c1`, the TGI in test [1], in test [2], in test [5], in test [6], in test [7] and in test [9] was more than 100 µM in each case. Moreover, in test [10], the TGI is more than 100 µM.
For `C/C(=N\N(c1ccccc1)c1ccccc1)c1c(O)cc(C)oc1=O`, the TGI in [1], in test [2], in [4], in test [5], in [6] and in test [7] was more than 100 µM each time. The compound further yielded a TGI in [10] of more than 100 µM.
Turning to `CN(C)CC1CCC/C1=N\O` (stereo not drawn), the TGI in test [1], in [2], in [3], in test [4], in test [5] and in [6] was more than 100 µM throughout. Besides, the TGI in [7], in [8], in test [9] and in [10] was more than 100 µM throughout.
Turning to `COC1C2C=CC(C2)[C@H]1[N+](=O)[O-]` (stereo partly drawn), the TGI in [1], in test [2], in [3], in [4], in test [5] and in test [6] was more than 100 µM throughout. For the same compound, the TGI in test [7], in test [9] and in test [10] was more than 100 µM throughout.
On to `Cc1ccc(-c2cc(-c3ccccc3)c(C#N)c(=O)n2C2OC(CO)C(O)C(O)C2O)cc1` (stereo not drawn), for which the TGI in test [1], in test [2], in [3], in test [4], in [5] and in test [6] was more than 100 µM each time. Further, the TGI in test [7], in test [8], in [9] and in [10] was more than 100 µM each time.
As to `CCC1=NC(CO)[C@H](c2ccccc2)O1` (stereo partly drawn), the TGI in [1], in [2], in test [3], in test [4], in [5] and in [6] was more than 100 µM throughout. Also, the TGI in test [7], in [8], in test [9] and in [10] was more than 100 µM throughout.
For the compound `CCOC(=O)c1cc(/C=C/C(C)=C/C(=O)OC)oc1C`, the TGI in test [1], in test [2], in test [4], in [5], in [6] and in test [7] was more than 100 µM throughout. Besides, the TGI in test [8], in test [9] and in test [10] was more than 100 µM in each case.
As for `CN1CC[C@]2(C)c3ccc(O)cc3CC3CCCC1C32C` (stereo partly drawn), the TGI in test [1], in [2], in test [3], in [5], in [6] and in test [7] was more than 100 µM throughout. Also, the TGI in [8], in test [9] and in test [10] was more than 100 µM each time.
With `CC1=C(C(=O)Nc2cccc(Cl)c2)C(c2ccccc2F)C(C(=O)Nc2cccc(Cl)c2)=C(C)N1`, the TGI in [2] came out at 32.2 µM; in [3] it was 29.5 µM; in [4], 21.3 µM; in test [5], 60.9 µM; in [6], 26.5 µM; in test [8] it was 11.1 µM. Besides, the TGI in test [9] was determined as 25.2 µM; in [10], 30.4 µM.
On to `CCOC(=O)/C=C1\CCCC12OCCO2`, for which the TGI in test [1], in [2], in [3], in [4], in [5] and in test [7] was more than 100 µM each time. The TGI in [8], in test [9] and in [10] was more than 100 µM throughout.
With `Cc1ccc(-c2cc(-c3ccco3)c(C#N)c(=O)n2C2OC(OC(=O)c3ccccc3)C(OC(=O)c3ccccc3)C2OC(=O)c2ccccc2)cc1` (stereo not drawn), the TGI in test [1], in test [2], in test [5], in test [7], in test [8] and in test [9] was more than 100 µM in each case. For the same compound, the TGI in test [10] is more than 100 µM.
In the case of `NCCCCNc1ccc2c(=O)[nH][nH]c(=O)c2c1`, the TGI in test [1], in [2], in [3], in test [4], in test [5] and in [6] was more than 100 µM each time. The TGI in [7], in test [9] and in [10] was more than 100 µM each time.
Consider `O=C(N/N=C(/CCN1CCCC1)CC(c1ccccc1)c1c(O)c2ccccc2oc1=O)c1ccncc1` (stereo not drawn), for which the TGI in test [1], in test [2], in test [3], in [4], in test [5] and in [6] was more than 100 µM throughout. Further, the TGI in test [7], in test [8], in [9] and in test [10] was more than 100 µM in each case.
On to `NC(=S)NNc1c([N+](=O)[O-])cnn(-c2ccccc2)c1=O`, for which the TGI came out at 22.1 µM in test [1]; 35.1 µM in [2]; 33.2 µM in [3]; 31.8 µM in [4]; 48.3 µM in [5]; 34.4 µM in [6]. Further, the TGI in [7] is 24.4 µM; in [8] it was more than 100 µM; in [9], 32.1 µM; in [10], 34 µM.
Regarding `CS(=O)(=O)CSCSSCS(C)(=O)=O`, the TGI is more than 100 µM in test [1]; 41.3 µM in test [2]; more than 100 µM in test [3]; more than 100 µM in [4]; more than 100 µM in [5]; more than 95.9 µM in test [6]. The TGI was 47 µM in test [7], 55.3 µM in [8], more than 100 µM in test [9] and 53.5 µM in [10].
`COC1OC(CO)C(O)C1N` (stereo not drawn): the TGI in test [1], in test [2], in test [3], in test [4], in test [5] and in test [6] was more than 100 µM in each case. The TGI in test [7], in test [9] and in test [10] was more than 100 µM each time.
For the compound `CCCCN(CCCC)c1c([N+](=O)[O-])c(=O)nc2ccccn12`, the TGI in test [1], in test [2], in [3], in [5], in test [6] and in [7] was more than 100 µM each time. Further, the TGI in test [8], in [9] and in test [10] was more than 100 µM each time.
As for `Cc1cc(C)c(C(=O)c2no[n+]([O-])c2C(=O)c2c(C)cc(C)c(Br)c2C)c(C)c1Br`, the TGI in [1] worked out at 21.9 µM; in test [2], 32.8 µM; in test [4], 50 µM; in test [5] it was 70.8 µM; in test [6], 24.3 µM; in test [7], 23.7 µM. Besides, the TGI worked out at 38.9 µM in test [8], 29.5 µM in test [9] and 29.1 µM in [10].
For the compound `COc1ccc2cc(-c3c(-c4ccncc4)nc(-c4ccc(S(C)(=O)=O)cc4C)n3C)ccc2c1`, the GI50 in test [1] is 7.62 µM; in test [2], 11.4 µM; in [3], 4.54 µM; in test [4], 5.3 µM; in test [6], 7.99 µM; in test [7], 7.95 µM. Also, the GI50 in test [8] is 9.89 µM; in test [9], 6.97 µM; in [10], 10.8 µM. Besides, the TGI was more than 25 µM in test [1]; more than 25 µM in test [2]; more than 15.4 µM in [3]; 22 µM in test [4]; more than 25 µM in test [6]; more than 25 µM in test [7]. In addition, the TGI was more than 25 µM in test [8], more than 23.5 µM in test [9] and more than 25 µM in test [10].
As to `Cc1cc2c(cc1C)N(C(=O)CCl)CCN2C(=O)CCl`, the GI50 is 0.186 µM in [1]; 0.657 µM in [2]; 0.64 µM in [3]; 1.44 µM in test [4]; 1.76 µM in test [6]; 0.657 µM in test [7]. Besides, the GI50 was 0.571 µM in test [8], 1.11 µM in [9] and 1.65 µM in [10]. Also, the TGI in test [1] is 0.409 µM; in [2], 1.58 µM; in test [3], 1.93 µM; in test [4], 3.37 µM; in test [6] it was 3.8 µM; in test [7], 2.29 µM. The values for the TGI in test [8], in test [9] and in [10] were 2.7 µM, 2.46 µM and 3.24 µM, respectively.
For the compound `CCC[n+]1cc2cc(OC)c(OC)cc2c2c1-c1cc3c(cc1C2)OCO3`, the GI50 is 3.39 µM in [1]; 1.11 µM in [2]; 2.09 µM in test [3]; 4.84 µM in [4]; 2.34 µM in [6]; 2.06 µM in test [7]. The GI50 in test [8] is 2.34 µM; in test [9], 0.955 µM; in test [10] it was 0.992 µM. Further, the TGI in test [1] was determined as 23.6 µM; in test [2] it was 12.3 µM; in test [3] it was 7.11 µM; in test [4] it was 19.2 µM; in test [6], 13.2 µM; in test [7], 5.77 µM. The TGI turned out to be 16 µM in test [8], 5.78 µM in test [9] and 6.34 µM in test [10].
Regarding `COc1ccc(C2=NN(C=O)C(c3cccc(Nc4ccnc5cc(Cl)ccc45)c3)C2)cc1` (stereo not drawn), the GI50 in test [1] is 1.84 µM; in test [2] it was 3.43 µM; in test [3] it was 0.922 µM; in [4], 1.54 µM; in test [6], 1.87 µM; in test [7] it was 2.41 µM. In addition, the values for the GI50 in [8], in test [9] and in test [10] were 1.36 µM, 1.97 µM and 2.34 µM, respectively. For the same compound, the TGI was 6.02 µM in test [1]; 17.6 µM in test [2]; 3.71 µM in [3]; 31.8 µM in [4]; more than 100 µM in [6]; 20.6 µM in test [7]. The values for the TGI in [8], in test [9] and in [10] were 11.2 µM, 12.5 µM and 7.41 µM, respectively.

Values taken from PubChem BioAssay (NCI).
